Experimental data reported in paper PMC11546786, “Designing Analogs of SAAP-148 with Enhanced Antimicrobial and Anti-LPS Activities” (International Journal of Molecular Sciences, 2024).
Ends that are not written are not given here.

Experiments:
five bacterial strains = assay: MICs against all five bacterial strains (geometric mean, range); format: cell-based; parameters: unit not given here; settings: geometric mean of MICs against all five bacterial strains
Description: (§1) The antibacterial activities of the peptides against […] were evaluated using a modified version of the Clinical Laboratory and Standards Institute (CLSI) broth microdilution method, as previously described. Briefly, the bacteria were cultured in liquid LB medium (comprising 10 g/L tryptone, 5 g/L yeast extract, and 10 g/L NaCl) at 37 °C until reaching mid-log phase. Subsequently, the bacterial concentration was adjusted to 1 × 10^6 colony-forming units (CFU)/mL. The peptides were then diluted serially with phosphate-buffered saline (PBS), followed by the addition of 50 μL of the diluted peptides to 50 μL of the bacterial suspension in a 96-well plate (Corning Inc., Lowell, MA, USA). After incubating at 37 °C for 18 to 20 h, the absorbance of each well was measured using a multi-well microplate reader (SpectraMax M5; Molecular Devices, Sunnyvale, CA, USA) at 600 nm.

[1] = system: Staphylococcus aureus (1.8721); format: cell-based
Excerpt: (§2) The LL-37, SAAP-148 and its analogues peptides were synthesized according to the standard Fmoc procedure. The Fmoc-protected resin and monomers are first treated with a basic solvent (piperidine) to remove the amino protecting groups. The carboxyl group of the next amino acid is activated by an activator. The activated monomer reacts with the free amino group to form a peptide bond. These two steps are repeated in a cycle until the synthesis is complete. After synthesis, the peptide is eluted from the column and purified by reverse-phase semipreparative high-performance liquid chromatography as detailed in Table 1. The peptides were dissolved in PBS to create a 1000 μmol/L stock solution for subsequent use. The purity of the synthetic peptide exceeded 95%. Blood samples from healthy donors were obtained from the Fifth Medical Center of Chinese PLA General Hospital (Beijing, China). Human normal lung epithelial cells (BEAS-2B) and mouse mononuclear macrophages cells (RAW 264.7) were sourced from Beyotime Biotechnology (Beijing, China), along with the Enhanced Cell Counting Kit-8 (CCK-8) and nitric oxide detection kit. RPMI-1640 and DMEM were procured from Merck (Darmstadt, Germany), while FBS was obtained from ExCell Bio (Shanghai, China). LPS-B5 (from E. coli 055:B5) was procured from Invivogen (Toulouse, France). Five bacterial strains, including Escherichia coli (1.8732), Pseudomonas aeruginosa (1.2421), Klebsiella pneumonia (1.1736) as Gram-negative bacteria, and Staphylococcus aureus (1.8721) and Staphylococcus epidermidis (1.4260) as Gram-positive bacteria, were procured from the China General Microbiological Culture Collection Centre (CGMCC) (Beijing, China).
as §1

[2] = system: Pseudomonas aeruginosa (1.2421); format: cell-based
Excerpt: as §2, §1

[3] = system: Staphylococcus epidermidis (1.4260); format: cell-based
Excerpt: as §2, §1

[4] = system: Escherichia coli (1.8732); format: cell-based
Excerpt: as §2, §1

[5] = system: Gram-negative bacteria (E. coli, P. aeruginosa, K. pneumoniae); assay: Geometric mean of MICs against Gram-negative bacteria; format: cell-based; parameters: unit not given here
Description: as §1

[6] = CD spectra, secondary structure by BeStSel; format: physicochemical; settings: 30 μM SDS as printed, 100 μM peptide, 25 °C
Description: CD spectra (Figure S1) were acquired using a JASCO J-1500 spectropolarimeter (JASCO Inc., Easton, MD, USA) in 0.1 cm pathlength cells under nitrogen at 25 °C. The spectra were recorded in the range of 190 to 250 nm at a peptide concentration of 100 μM in SDS. Secondary structure was determined using the BeStSel server. Hydropathicity, mean relative hydrophobic moment, and charge of peptides were predicted using the HeliQuest (https://heliquest.ipmc.cnrs.fr/ (accessed on 12 March 2024)). The 3D structure of SAAP-148 and its analogues (Figure S2) was predicted using PEP-FOLD4 servers (https://bioserv.rpbs.univ-paris-diderot.fr/services/PEP-FOLD4/ (accessed on 19 June 2024)).

[7] = system: Klebsiella pneumonia (1.1736); format: cell-based, Klebsiella pneumoniae
Excerpt: as §2, §1

[8] = system: Gram-positive bacteria (S. aureus, S. epidermidis); assay: Geometric mean of MICs against Gram-positive bacteria; format: cell-based; parameters: unit not given here
Description: as §1

[9] = Reversed-phase HPLC retention time as measure of peptide hydrophobicity; format: physicochemical; settings: retention time by reverse-phase HPLC, reflects hydrophobicity difference between analogues
Excerpt: The physicochemical parameters crucial for the antimicrobial activity of AMPs have been identified, encompassing net charge, helicity, hydrophobicity, and amphipathicity. The hydropathicity, mean relative hydrophobic moment, and charge of peptides were predicted using the HeliQuest (https://heliquest.ipmc.cnrs.fr/ (accessed on 12 March 2024)). Lysine is a hydrophilic amino acid, and its substitution leads to a decrease in the hydrophobicity of the SAAP-148 analogue. The anticipated results are consistent, with the degree of reduction in […] varying depending on the position at which lysine is substituted (Table 2). The amphipathicity of the peptides, as denoted by the μH (mean relative hydrophobic moment), is elaborated on in Table 2. The hydrophobic moment of SAAP-148 analogues was decreased except for SAAP-10, which is on account of the substitution occurring on the18th residue. (Figure 1) The 18th residue of SAAP-148 is glutamine, a polar amino acid residue, located at the junction of the hydrophobic and hydrophilic surfaces of the SAAP-148 α-helix. […] The retention time data determined by reversed-phase high-performance liquid chromatography (RP-HPLC) reflects the hydrophobicity difference between peptide analogues. It is well documented that the formation of a hydrophobic-binding domain due to peptide secondary structure can affect peptide interactions with reversed-phase matrices. This effect was observed particularly for amphipathic α-helical peptides. Given this preferred binding domain, amphipathic α-helical peptides are considerably more retentive than non-amphipathic peptides with the same amino acid composition.
This phenomenon was particularly evident in the case of amphipathic α-helical peptides. […] This discrepancy may be attributed to the lack of a well-defined α-helical structure in SAAP-148 and its analogues (Figure S1).

[10] = system: human erythrocytes versus five bacterial strains; assay: Therapeutic index (MHC/GM of MIC); settings: for Fold (TI of analogue compared with SAAP-148): TI change relative to SAAP-148; for TI (MHC/MIC): ratio of MHC to geometric mean of MIC (five strains)
Description: The geometric mean of minimum inhibitory concentration (MIC) values (GM) from the five strains was calculated to provide a comprehensive assessment of antimicrobial activity, as presented in Table 4.
The therapeutic index (TI) is a widely utilized parameter for indicating the specificity of antimicrobial agents, which is determined by the ratio of MHC (hemolytic activity) and MIC (antimicrobial activity). Consequently, larger TI values signify greater antimicrobial specificity. The TI can be enhanced through one of three mechanisms: increasing antimicrobial activity, reducing hemolytic activity while maintaining antimicrobial activity, or a combination of both augmenting antimicrobial activity and diminishing hemolytic activity.

human erythrocytes = assay: Haemolytic activity; format: cell-based
Description: The haemolytic activity of the peptides was evaluated using a standard procedure with minor adjustments. Fresh human erythrocytes were washed thrice and subsequently resuspended at 1.25% haematocrit in PBS. Forty microlitres PBS-diluted peptide solution was added to a 96-well plate (Corning Inc., Lowell, MA, USA), and 160 μL of erythrocytes was added. After incubation at 37 °C for 30 min, the samples were centrifuged, and the absorbance of the supernatant was measured at 450 nm using a multi-well microplate reader (SpectraMax M5; Molecular Devices, Sunnyvale, CA, USA) and compared with the 100% haemolysis caused by 0.1% Triton X-100. The percentage of haemolysis was calculated according to the equation: Haemolysis%=Asample−Ablank/Atriton−Ablank×100

Row | Substance | MIC (GM) (five bacterial strains) | MIC S. aureus [1] [µM] | MIC P. aeruginosa [2] [µM] | MIC S. epidermidis [3] [µM] | MIC E. coli [4] [µM] | GM to G− [5] | Others [6] [%] | Turn [6] [%] | α-Helix [6] [%] | β-Antiparallel [6] [%] | β-Parallel [6] [%] | MIC K. pneumoniae [7] [µM] | GM to G+ [8] | Rt [9] [min] | Fold (TI of analogue compared with SAAP-148) [10] | TI (MHC/MIC) [10] | haemolytic activity compared with SAAP-148 (human erythrocytes)
1 | LKRVWKRVFKLLKRYWRQLKKPKR-NH2 [SAAP-13] | 14.36 | 50.00 | 12.50 | 6.25 | 6.25 | 12.5 | 1.2 | 0 | 98.8 | 0 | 0 | 25.00 | 17.68 | 16.867 | 0.45 | 0.05 | 
2 | LKRVWKRVFKKLKRYWRQLKKPVR-NH2 [SAAP-6] | 3.59 | 25.00 | 1.56 | 1.56 | 1.56 | 2.48 | 0 | 0 | 84.4 | 15.6 | 0 | 6.25 | 6.24 | 9.213 | 15.82 | 1.74 | 
3 | LKRKWKRVFKLLKRYWRQLKKPVR-NH2 [SAAP-2] | 7.18 | 50.00 | 3.13 | 3.13 | 3.13 | 4.97 | 0 | 0 | 93.5 | 6.5 | 0 | 12.50 | 12.51 | 12.532 | 1 | 0.11 | comparable hemolytic activity to SAAP-148
4 | LKRVWKRVKKLLKRYWRQLKKPVR-NH2 [SAAP-5] | 5.44 | 25.00 | 6.25 | 3.13 | 1.56 | 3.94 | 0 | 0 | 100 | 0 | 0 | 6.25 | 8.85 | 10.681 | 10.45 | 1.15 | 
5 | LKRVWKRVFKLLKRYKRQLKKPVR-NH2 [SAAP-9] | 6.25 | 50.00 | 1.56 | 3.13 | 3.13 | 3.94 | 0 | 0 | 100 | 0 | 0 | 12.50 | 12.51 | 11.941 | 9.09 | 1.00 | 
6 | LKRVWKRVFKLLKRYWRQKKKPVR-NH2 [SAAP-11] | 14.36 | 50.00 | 6.25 | 3.13 | 6.25 | 15.75 | 0 | 0 | 100 | 0 | 0 | 100.00 | 12.51 | 15.926 | 0.45 | 0.05 | 
7 | LKRVWKRVFKLLKRKWRQLKKPVR-NH2 [SAAP-8] | 4.74 | 25.00 | 1.56 | 1.56 | 1.56 | 3.93 | 0 | 0 | 100 | 0 | 0 | 25.00 | 6.24 | 13.475 | 6 | 0.66 | 
8 | LKRVKKRVFKLLKRYWRQLKKPVR-NH2 [SAAP-3] | 6.25 | 100.00 | 3.13 | 3.13 | 1.56 | 3.12 | 0 | 0 | 100 | 0 | 0 | 6.25 | 17.69 | 11.208 | 72.73 | 8.00 | 
